According to US20260327217A1, “THIAZOLE DERIVATIVES AS TAU AGGREGATION INHIBITORS” (WisTa Laboratories Ltd., priority 2022, published 2026):
“Also recorded” adds a separate entry of the source. Where a name gives a salt, the structure may show the parent alone. Read-outs that look alike come from different tables or passages of the source.

Columns and labels:
[1] = target: T1, full-length tau (T40; htau40 isoform) / truncated tau (12-kDa fragment) in 3T6 fibroblast cells (Homo sapiens, UniProt P10636); experiment: cellular tau aggregation inhibition assay (truncated 12-kDa tau / full-length T40 band ratio on immunoblots); assay type: cell-based; conditions: for activity at 2 µM / activity at 20 µM: single concentration test, vs untreated cells, ~1.0 negative, <0.5 positive inhibitor, read-out: Truncated tau/T40 ratio (n = 3); for activity at 20 µM: tested at 20 μM
T1 construct: fibroblast cells (3T6) express full-length tau; PHF-core tau fragment (12-kDa fragment); expressed in transfected cells; host or cells: 3T6 fibroblast cells
Experimental: A cell-based tau aggregation assay was performed as described previously. The process is described in more detail in WO 02/055720. In essence, fibroblast cells (3T6) express full-length tau (“T40”; the htau40 isoform) under control of an inducible promotor, and low constitutive levels of the PHF-core tau fragment (12-kDa fragment). When T40 expression is induced, it undergoes aggregation-dependent truncation within the cell, N-terminally at approximately amino acid residue 295 and C-terminally at approximately residue 390, thereby producing higher levels of the 12-kDa PHF-core domain fragment. Production of the 12-kDa fragment can be blocked in a dose-dependent manner by tau-aggregation inhibitors. Indeed, the quantitation of inhibitory activity of compounds with respect to proteolytic generation of the 12-kDa fragment within cells can be described entirely in terms of the same parameters which describe inhibition of tau-tau binding in vitro. That is, the extent of proteolytic generation of the 12-kDa fragment within cells is determined entirely by the extent to tau-tau binding through the repeat domain.
[…] MTC was included as a reference tau aggregation inhibitor. For single concentration tests. The ratio of the quantity of both of the protein bands at different concentrations of TAI is measured, to correct for the level of expression of full-length tau and for cell density, particularly at high concentration of TAIs.
The inhibitory ratio (IR) is calculated by the equation:
Where IR^x=inhibitory ratio for compound at x mM; S=signal on immunoblot (mean) for truncated tau (trunc. tau) or full-length tau (full tau) bands for compound at 0 or x mM. A ratio of 1.0 indicates no effect, whereas values decreasing from 1.0 indicate increasing inhibitory action. A curve is generated for different concentrations and the EC50 value for the TAI is defined as the concentration at which the ratio of truncated tau: full-length tau is 50% of that ratio measured in the absence of TAI; this is determined graphically.
The concentration at which there is 50% inhibition of the 12-kDa band relative to T40 (referred to as the EC50 value) was calculated from a graph of the protein band ratios relative to those observed in untreated cells.

[2] = toxicity in cells (lactate dehydrogenase assay, 24 hrs); assay type: cell-based; conditions: mouse, 3t6 fibroblasts; concentration at which 50% of cells are killed; 24 hrs exposure; read-out: LD50
Experimental: Toxicity of the compounds described herein was assessed using the fibroblast cells used in the cell-based assay described above to assess EC50. Toxicity was measured by cell numbers after 24 hrs exposure to the compound using a lactate dehydrogenase assay kit TOX-7 (Sigma Biosciences) according to the manufacturer's instructions after lysis of remaining cells. Alternatively, a kit from Promega UK (CytoTox 96) was used, again according to the manufacturer's instructions. LD50 is determined as the concentration of compound at which 50% of cells are killed.

[3] = target: T2, truncated tau (residues 297-390; dGA) / dGAE (residues 297-391), tau-tau binding (Homo sapiens, UniProt P10636); experiment: in vitro cell-free tau-tau binding assay (B50); conditions: concentration required to inhibit tau-tau binding by 50%
T2 construct: truncated tau (residues 297-390; dGA); another truncated tau species (residues 297-391; dGAE)
Source text: This is described in detail in WO 96/30766 and in [25]. Briefly, a fragment of tau corresponding to the core repeat domain, which has been adsorbed to a solid-phase substrate, is able to capture soluble, full-length tau and bind tau with high affinity. This association confers stability against proteolytic digestion of the aggregated tau molecules. The process is self-propagating and can be blocked selectively by prototype pharmaceutical agents.
More specifically, truncated tau (residues 297-390; dGA) diluted in carbonate buffer (pH 9.6) was bound to the assay plate, and another truncated tau species (residues 297-391; dGAE) was added in the aqueous phase. The aqueous phase binding buffer contained 0.05% Tween-20 and 1% gelatine in phosphate-buffered saline (pH 7.4). Bound dGAE was detected using mAb 423 that recognises a Glu-391 dependent epitope that is absent from the solid-phase dGA.
The concentration of compound required to inhibit the tau-tau binding by 50% is referred to as the B50 value.

dGAE = target: T3, dGAE (Homo sapiens, UniProt P10636); experiment: solution-phase sandwich ELISA of dGAE assembly (scAb epitope occlusion); assay type: biochemical; conditions: 100 μM dGAE, 500 μM inhibitor, 24 h assembly; for assembly-dependent occlusion of epitopes: CA4, CE2, 1G2 and 1D12 epitopes; for 1G2 epitope availability / immunoreactivity: scAb 1G2
T3 construct: HMT or Compound 9 added
Experimental: Recombinant dGAE was produced in a bacterial expression system and assembled in the presence of 10 mM DTT by incubation at 37° C. with agitation for 24 h, as described previously. For testing the pharmacological activity, assembly reactions were performed with 100 μM dGAE and 500 μM tau aggregation inhibitor (Compound 9 or HMT) in Protein Lobind tubes (Eppendorf). Compound 9 was dissolved in DMSO (final 0.5%) and HMT in 10 mM phosphate buffer (PB) supplemented with 10 mM DTT. Control tubes with dGAE+DTT in PB and dGAE+DTT in 0.5% DMSO were also set up to allow for comparison of the extent of aggregation. Following a 24 h assembly reaction, the contents from each tube were mixed by pipetting and samples removed for the immunodetection of exposed epitopes using a solution-phase sandwich ELISA.
Ninety-six well Nunc Maxisorp plates were pre-coated with mAb 423 (10 μg/ml), which specifically recognises tau that is C-terminally truncated at Glu391 in the Pronase-resistant PHF core, washed three times with PBS containing 0.1% Tween 20 (PBST) and then blocked with 2% dried milk (Marvel) in PBS. Doubling dilutions of dGAE assembly samples were added from starting concentrations of 10 μg/ml in PBS and incubated for 1 h at 37° C. Bound tau was then detected using scAbs (10 μg/ml) and incubated for 1 h at 37° C. Anti-human C kappa HRP-conjugated secondary antibody was diluted 1:1,000 in 2% dried milk in PBS and incubated for 1 h at 37° C. Pierce 1-Step Ultra TMB-ELISA Substrate Solution was used to develop the reaction which was subsequently stopped with the addition of 1 M H2SO4. Absorbance was measured at 450 nm.

[4] = target: T1, full-length tau (T40; htau40 isoform) / truncated tau (12-kDa fragment) in 3T6 fibroblast cells; conditions: previously reported [4, 13]; read-out: EC50 in the cell assay; cited from earlier work
[5] = both AD and frontotemporal dementia; cited from earlier work
[6] = full assay, concentration at which truncated tau:full-length tau ratio is 50% of that without TAI, mean for replicates, NE = no effect, read-out: EC50

T2 sequence (P10636 614-708): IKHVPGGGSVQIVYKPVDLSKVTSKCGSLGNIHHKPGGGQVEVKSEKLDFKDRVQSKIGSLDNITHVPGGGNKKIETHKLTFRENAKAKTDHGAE
T3 sequence (P10636 614-708): as above
T1 sequence (P10636 1-441 isoform P10636-8): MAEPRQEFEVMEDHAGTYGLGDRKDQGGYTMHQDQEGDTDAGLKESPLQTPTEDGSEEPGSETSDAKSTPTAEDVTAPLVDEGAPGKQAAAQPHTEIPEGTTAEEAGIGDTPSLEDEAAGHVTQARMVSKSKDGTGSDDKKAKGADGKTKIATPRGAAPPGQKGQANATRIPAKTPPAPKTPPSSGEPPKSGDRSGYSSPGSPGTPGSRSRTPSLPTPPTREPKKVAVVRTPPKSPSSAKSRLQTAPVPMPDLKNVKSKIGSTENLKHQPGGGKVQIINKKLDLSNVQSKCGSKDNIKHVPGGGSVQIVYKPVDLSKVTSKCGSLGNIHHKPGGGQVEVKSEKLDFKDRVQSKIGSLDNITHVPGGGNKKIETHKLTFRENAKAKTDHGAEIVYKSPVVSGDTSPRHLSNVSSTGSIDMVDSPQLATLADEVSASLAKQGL

| SMILES | activity at 2 µM ([1]; >2.0 aggregation enhanced) [%] | CC50 at 24 h [2] [µM] | other results |
| --- | --- | --- | --- |
| CS(=O)(=O)Nc1nc(C(=O)NCc2ccc[nH]2)cs1 [Compound 1] | 501 ± 40.4 | 247 ± 16 | – |
| Cn1cccc1CNC(=O)c1csc(NS(C)(=O)=O)n1 [Compound 2] | 86.4 ± 5.9 | 253 ± 40 | – |
| CS(=O)(=O)Nc1nc(C(=O)NCc2cc3ccccc3[nH]2)cs1 [Compound 3] | 228 ± 44.9 | 212 ± 14 | – |
| CS(=O)(=O)Nc1nc(C(=O)NCc2nc3cc(Cl)ccc3[nH]2)cs1 [Compound 4] | 480 ± 114 | 264 ± 27 | – |
| CS(=O)(=O)Nc1nc(C(=O)NCc2cc(-c3ccccc3)[nH]n2)cs1 [Compound 5] | 72.7 ± 11.3 | 252 ± 23 | – |
| CC(C)(C)CCNC(=O)c1csc(NS(C)(=O)=O)n1 [Compound 6] | 88.8 ± 5.7 | 217 ± 2.7 | – |
| CN(c1nc(C(=O)NCc2ccc[nH]2)cs1)S(C)(=O)=O [Compound 7] | 44.4 ± 20.8 | 216 ± 46 | – |
| CN(c1nc(C(=O)NCc2cccn2C)cs1)S(C)(=O)=O [Compound 8] | 7.8 ± 1.4 | 204 ± 39 | – |
| CN(c1nc(C(=O)NCc2cc(-c3ccccc3)[nH]n2)cs1)S(C)(=O)=O [Compound 9] | – | 80.1 ± 45 | EC50 [1, 6]: 4.82 µM; activity in cell-based aggregation assay (in words) ([1]; qualitative statement): lower potency; activity at 2 µM ([1]; tested at 2 μM): 26.6 ± 6.1%; EC50 ([1]; single experiment, FIG. 2, read-out: EC50 (50% inhibition of the lower 12-kDa band)): 3.65 µM; IC50 [3]: > 500 µM; assembly-dependent occlusion of epitopes (dGAE): Epitope exposure was less complete; 1G2 epitope availability / immunoreactivity (dGAE): comparable to HMT; exposure of the CA4 and 1D12 epitopes (dGAE; scAbs CA4 and 1D12): only partial exposure |
| CN(c1nc(C(=O)NCCC(C)(C)C)cs1)S(C)(=O)=O [Compound 10] | 49.6 ± 9.6 | 191 ± 26 | EC50 [1, 6]: 29 µM |
| Cn1cccc1CNC(=O)c1csc(NS(=O)(=O)CCO)n1 [Compound 11] | 91.7 ± 18.8 | 222 ± 35 | – |
| O=C(NCc1nc2cc(Cl)ccc2[nH]1)c1csc(NS(=O)(=O)CCO)n1 [Compound 12] | – | 197 ± 11.9 | activity at 20 µM [1]: 101 ± 8.8% |
| O=C(NCc1cc(-c2ccccc2)[nH]n1)c1csc(NS(=O)(=O)CCO)n1 [Compound 13] | – | 197 ± 8.1 | activity at 20 µM [1]: 112 ± 16.2% |
| CC(C)(C)CCNC(=O)c1csc(NS(=O)(=O)CCO)n1 [Compound 14] | – | 263 ± 39 | EC50 [1, 6]: 3.7 µM; activity at 2 µM ([1]; tested at 2 μM): 38.1 ± 14.6% |
| O=C(NCc1ccc[nH]1)c1csc(NS(=O)(=O)CF)n1 [Compound 15] | 120 ± 25.7 | 221 ± 35 | – |
| Cn1cccc1CNC(=O)c1csc(NS(=O)(=O)CF)n1 [Compound 16] | – | 236 ± 25 | activity at 20 µM [1]: 62.8 ± 5.1% |
| O=C(NCc1cc2ccccc2[nH]1)c1csc(NS(=O)(=O)CF)n1 [Compound 17] | – | 228 ± 40 | activity at 2 µM ([1]; tested at 2 μM): 53.2 ± 15% |
| O=C(NCc1nc2ccc(Cl)cc2[nH]1)c1csc(NS(=O)(=O)CF)n1 [Compound 18] | 14.1 ± 3.9 | 225 ± 38 | – |
| O=C(NCc1cc(-c2ccccc2)[nH]n1)c1csc(NS(=O)(=O)CF)n1 [Compound 19] | 197 ± 94.6 | 231 ± 38 | – |
| CC(C)(C)CCNC(=O)c1csc(NS(=O)(=O)CF)n1 [Compound 20] | 80.3 ± 42.4 | 186 ± 13 | – |
| CNS(=O)(=O)Nc1nc(C(=O)NCc2cc3ccccc3[nH]2)cs1 [Compound 21] | 217 ± 85.6 | 227 ± 30 | – |
| CNS(=O)(=O)Nc1nc(C(=O)NCc2nc3cc(Cl)ccc3[nH]2)cs1 [Compound 22] | 136 ± 59.1 | 228 ± 36 | – |
| CNS(=O)(=O)Nc1nc(C(=O)NCc2cc(-c3ccccc3)[nH]n2)cs1 [Compound 23] | 98.5 ± 10.1 | 226 ± 40 | – |
| CNS(=O)(=O)Nc1nc(C(=O)NCCC(C)(C)C)cs1 [Compound 24] | 349 ± 106 | 235 ± 44 | – |
| O=C(NCc1nc2cc(Cl)ccc2[nH]1)c1csc(NS(=O)(=O)c2c[nH]c3ccccc23)n1 [Compound 25] | – | 202 ± 9.3 | activity at 20 µM [1]: 91.1 ± 10%; IC50 [3]: 612 µM |
| O=C(NCc1cc(-c2ccccc2)[nH]n1)c1csc(NS(=O)(=O)c2c[nH]c3ccccc23)n1 [Compound 26] | – | 188 ± 11 | activity at 20 µM [1]: 132 ± 8.4%; IC50 [3]: 616 µM |
| CN(C)c1ccc2c(c1)Sc1cc(N(C)C)ccc1N2 [HMT, Hydromethylthionine, reference compound] | – | – | assembly-dependent occlusion of epitopes (dGAE): assembly-dependent occlusion of these epitopes did not occur; 1G2 epitope availability / immunoreactivity (dGAE): remained partially occluded; CE2 epitope availability / immunoreactivity (dGAE; scAb CE2): became more available in the HMT-treated sample than in the soluble pre-assembly sample; also recorded: prevented the conformational changes in the CE2 epitope responsible for early loss of immunoreactivity; EC50 [4]: 0.6 µM |
| CN(C)c1ccc2c(c1)Sc1cc(N(C)C)ccc1N2 [HMTM, Hydromethylthionine mesylate] | – | – | pharmacological activity on clinical decline and brain atrophy [5]: exposure-dependent pharmacological activity on clinical decline and brain atrophy |
| CN(C)c1ccc2nc3ccc(N(C)C)cc3[s+]c2c1.[Cl-] [MT, reference compound] | – | – | tau aggregation level, % of that measured in its absence ([1]; MT at 1 μM): 9.6% |
